Data reported in patent publication US10570457B2, “Methods for predicting drug responsiveness” (Medical Prognosis Institute A/S, priority 2014, dated 2020).

Tests used:
colorectal cancer = settings: cited from earlier work
[1] = tested on: colorectal cancer patients; assay: Survival of colon cancer patients treated with 5-FU, grouped by NT5E-predicted sensitivity; type: in vivo, human; settings: adjuvant chemotherapy with 5-FU; NT5E expression below vs above population median; 232 colorectal cancer biopsies; p=0.006
Method: A clinical dataset of 232 pre-treatment fresh frozen colorectal cancer surgical biopsies was downloaded from Gene Expression Omnibus under accession number GSE17538. The biopsies were analyzed using the Affymetrix HG-U133-Plus_2 array type. The expression of NT5E was determined by reading the intensity of Affymetrix probeset 203939_at, which is predicted to be more highly expressed in 5-FU-resistant patients. Patients were predicted sensitive to 5-FU if the expression of NT5E was below the population median. Patients were predicted resistant if expression of NT5E was above the population median.

topoisomerase I = biological target: T1, topoisomerase I (Homo sapiens, UniProt P11387); settings: metabolite of irinotecan; cited from earlier work
T1 sequence (P11387 1-765): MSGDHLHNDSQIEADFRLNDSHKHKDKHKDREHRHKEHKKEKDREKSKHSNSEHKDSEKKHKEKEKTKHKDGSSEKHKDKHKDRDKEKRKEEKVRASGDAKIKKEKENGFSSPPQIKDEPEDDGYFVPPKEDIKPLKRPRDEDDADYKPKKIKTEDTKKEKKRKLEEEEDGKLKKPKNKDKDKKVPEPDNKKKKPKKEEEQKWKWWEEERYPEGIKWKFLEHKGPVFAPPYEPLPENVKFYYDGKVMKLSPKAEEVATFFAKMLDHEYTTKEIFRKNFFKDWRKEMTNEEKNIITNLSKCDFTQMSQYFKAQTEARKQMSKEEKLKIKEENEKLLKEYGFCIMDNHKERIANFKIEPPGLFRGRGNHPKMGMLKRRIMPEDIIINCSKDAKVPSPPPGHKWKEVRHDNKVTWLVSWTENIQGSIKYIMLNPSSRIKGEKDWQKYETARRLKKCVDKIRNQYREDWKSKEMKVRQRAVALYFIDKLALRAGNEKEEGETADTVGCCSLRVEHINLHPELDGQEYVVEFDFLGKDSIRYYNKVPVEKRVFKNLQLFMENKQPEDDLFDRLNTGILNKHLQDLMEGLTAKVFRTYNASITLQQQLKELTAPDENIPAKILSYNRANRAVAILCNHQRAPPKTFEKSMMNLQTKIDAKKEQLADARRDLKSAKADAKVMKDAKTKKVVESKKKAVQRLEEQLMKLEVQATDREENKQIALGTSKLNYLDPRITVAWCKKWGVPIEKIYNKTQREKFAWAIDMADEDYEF

O=c1[nH]cc(F)c(=O)[nH]1 [5-Fluorouracil (5-FU), 5-fluorouracil]
Survival effect of 5-FU treatment (colorectal cancer; adjuvant setting of colorectal cancer): survival benefit
Response rate, 5-FU monotherapy (colorectal cancer; metastatic colorectal cancer): 10-15%
Survival of predicted-sensitive group versus predicted-resistant group [1]: significantly higher rate of survival

CCc1c2c(nc3ccc(O)cc13)-c1cc3c(c(=O)n1C2)COC(=O)[C@]3(O)CC [SN-38]
Potency as a topoisomerase inhibitor relative to irinotecan (topoisomerase I): significantly greater potency
